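48-hour exposure; five concentrations; linearly interpolated endpoints. Here, GI50 denotes the concentration required for 50% inhibition of growth.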 Activity calls are given as the source filed them. No stated cut-off is given here; in the data, active = GI50 up to about 1.1 µM and inactive = higher.
Legend:
Assay in all cases: inhibition of tumour cell growth, NCI panel, 48 h
KM12 = system: KM12
K562 = system: K562
NCI-H226 = system: NCI-H226
HOP-92 = system: HOP-92
MCF7 = system: MCF7
OVCAR-8 = system: OVCAR-8
SK-OV-3 = system: SK-OV-3
SNB-19 = system: SNB-19
OVCAR-5 = system: OVCAR-5
SN12C = system: SN12C
OVCAR-3 = system: OVCAR-3
A549 = system: A549
NCI-H522 = system: NCI-H522
MOLT-4 = system: MOLT-4
COLO 205 = system: COLO 205
SW-620 = system: SW-620
IGROV-1 = system: IGROV-1
A498 = system: A498
U-251 = system: U-251
HOP-62 = system: HOP-62

| SMILES | GI50 (KM12) | GI50 (K562) | GI50 (NCI-H226) | GI50 (HOP-92) | GI50 (MCF7) | GI50 (OVCAR-8) | GI50 (SK-OV-3) | GI50 (SNB-19) | GI50 (OVCAR-5) | GI50 (SN12C) | GI50 (OVCAR-3) | GI50 (A549) | GI50 (NCI-H522) | GI50 (MOLT-4) | GI50 (COLO 205) | GI50 (SW-620) | GI50 (IGROV-1) | GI50 (A498) | GI50 (U-251) | GI50 (HOP-62) |
| --- | --- | --- | --- | --- | --- | --- | --- | --- | --- | --- | --- | --- | --- | --- | --- | --- | --- | --- | --- | --- |
| CC1C2CC(C(C3C(=O)C4CC3C(C)(C)C4C)C2=O)C1(C)C (stereo not given) | > 100 µM (inactive) | > 100 µM (inactive) | > 100 µM (inactive) | > 100 µM (inactive) | > 100 µM (inactive) | > 100 µM (inactive) | > 100 µM (inactive) | > 100 µM (inactive) | > 100 µM (inactive) | > 100 µM (inactive) | > 100 µM (inactive) | > 100 µM (inactive) | > 100 µM (inactive) | > 100 µM (inactive) | > 100 µM (inactive) | > 100 µM (inactive) | > 100 µM (inactive) | > 100 µM (inactive) | > 100 µM (inactive) | > 100 µM (inactive) |
| COC(=O)C1(F)C(=O)NC(=O)NC1O (stereo not given) | 50.2 µM (inactive) | > 84.5 µM (inactive) | > 100 µM (inactive) | > 58.9 µM (inactive) | 10.7 µM (inactive) | > 100 µM (inactive) | > 100 µM (inactive) | > 100 µM (inactive) | > 100 µM (inactive) | > 100 µM (inactive) | 62.7 µM (inactive) | 90.8 µM (inactive) | > 100 µM (inactive) | 31.8 µM (inactive) | 40.4 µM (inactive) | > 77.6 µM (inactive) | > 100 µM (inactive) | > 100 µM (inactive) | > 100 µM (inactive) | > 100 µM (inactive) |
| CC(CO)(CO)N1C(=O)C2C3C=CC(C3)C2C1=O (stereo not given) | > 100 µM (inactive) | > 100 µM (inactive) | > 100 µM (inactive) | > 100 µM (inactive) | > 100 µM (inactive) | > 100 µM (inactive) | > 100 µM (inactive) | > 100 µM (inactive) | > 100 µM (inactive) | > 100 µM (inactive) | > 100 µM (inactive) | > 100 µM (inactive) | > 100 µM (inactive) | > 100 µM (inactive) | > 100 µM (inactive) | > 100 µM (inactive) | > 100 µM (inactive) | > 100 µM (inactive) | > 100 µM (inactive) | > 100 µM (inactive) |
| CCn1c(SCC(=O)N/N=C/c2ccccc2)nc2ccccc2c1=O | 3.64 µM (inactive) | 1.87 µM (inactive) | 10.8 µM (inactive) | 26.9 µM (inactive) | 4.75 µM (inactive) | 16.3 µM (inactive) | 17.8 µM (inactive) | 18.5 µM (inactive) | > 52 µM (inactive) | 13.1 µM (inactive) | 10 µM (inactive) | 4.89 µM (inactive) | 3.7 µM (inactive) | 5.14 µM (inactive) | 8.34 µM (inactive) | 1.99 µM (inactive) | 12.9 µM (inactive) | 8.22 µM (inactive) | 18.5 µM (inactive) | 12.8 µM (inactive) |
| COc1ccc2cc(CN3CCC(C4CCN(Cc5ccc6cc(OC)ccc6c5)CC4)CC3)ccc2c1 | 2.43 µM (inactive) | 0.455 µM (active) | 16.6 µM (inactive) | 2.37 µM (inactive) | 4.06 µM (inactive) | 5.15 µM (inactive) | 26.3 µM (inactive) | 3.2 µM (inactive) | 21.8 µM (inactive) | 8.95 µM (inactive) | 3.1 µM (inactive) | 24.9 µM (inactive) | 2.3 µM (inactive) | 2.2 µM (inactive) | 1.78 µM (inactive) | 2.64 µM (inactive) | 8.77 µM (inactive) | 8.43 µM (inactive) | 2.52 µM (inactive) | 6.43 µM (inactive) |
| O=C(NS(=O)(=O)OCC(Cl)(Cl)Cl)SCCC(F)(F)C(F)(F)C(F)(F)C(F)(F)C(F)(F)C(F)(F)F | 19.9 µM (inactive) | 28.6 µM (inactive) | 25.9 µM (inactive) | 10.4 µM (inactive) | 20 µM (inactive) | 51.3 µM (inactive) | 17.7 µM (inactive) | 17.9 µM (inactive) | 18.6 µM (inactive) | 32.4 µM (inactive) | 24.9 µM (inactive) | 30.2 µM (inactive) | 20 µM (inactive) | 29 µM (inactive) | 17.9 µM (inactive) | 20.2 µM (inactive) | 37.4 µM (inactive) | 31 µM (inactive) | 23.6 µM (inactive) | 28.2 µM (inactive) |
| CCCc1[nH]c2ccccc2c1-c1c(CCC)[nH]c2ccccc12 | 16.6 µM (inactive) | 7.74 µM (inactive) | 19.2 µM (inactive) | 19.5 µM (inactive) | 4.66 µM (inactive) | 3.35 µM (inactive) | 24.1 µM (inactive) | 13.5 µM (inactive) | 16.9 µM (inactive) | 10.1 µM (inactive) | 8.2 µM (inactive) | 27.7 µM (inactive) | 17.1 µM (inactive) | 30.1 µM (inactive) | 17.9 µM (inactive) | 6.76 µM (inactive) | 12 µM (inactive) | > 86.1 µM (inactive) | 6.71 µM (inactive) | 16.9 µM (inactive) |
| O=C(O)CNC(=O)c1cccc2c(=O)c3ccccc3[nH]c12 | > 20.9 µM (inactive) | > 100 µM (inactive) | > 100 µM (inactive) | > 100 µM (inactive) | > 100 µM (inactive) | > 100 µM (inactive) | > 100 µM (inactive) | > 100 µM (inactive) | > 100 µM (inactive) | > 100 µM (inactive) | > 100 µM (inactive) | > 100 µM (inactive) | > 100 µM (inactive) | > 100 µM (inactive) | > 100 µM (inactive) | > 100 µM (inactive) | 26.9 µM (inactive) | > 100 µM (inactive) | > 100 µM (inactive) | > 100 µM (inactive) |
| CCC(Sc1cc(Cl)c(C)cc1S(=O)(=O)Nc1nc(N)nc(N(C)C)n1)C(=O)O (stereo not given) | > 10 µM (inactive) | > 10 µM (inactive) | > 10 µM (inactive) | > 10 µM (inactive) | > 10 µM (inactive) | > 10 µM (inactive) | > 10 µM (inactive) | > 10 µM (inactive) | > 10 µM (inactive) | > 10 µM (inactive) | > 10 µM (inactive) | > 10 µM (inactive) | > 10 µM (inactive) | > 10 µM (inactive) | > 10 µM (inactive) | > 10 µM (inactive) | > 10 µM (inactive) | > 10 µM (inactive) | > 10 µM (inactive) | > 10 µM (inactive) |
| COc1ccc(/C=c2/s/c(=C(\C#N)c3nc4ccccc4[nH]3)n(-c3ccccc3)c2=O)cc1 | 56.6 µM (inactive) | > 100 µM (inactive) | 16.9 µM (inactive) | 12.6 µM (inactive) | 45.1 µM (inactive) | 14.6 µM (inactive) | 2.96 µM (inactive) | 47.1 µM (inactive) | > 100 µM (inactive) | > 80.2 µM (inactive) | 26.8 µM (inactive) | 51.2 µM (inactive) | > 60.3 µM (inactive) | 53.6 µM (inactive) | 36.2 µM (inactive) | 25.2 µM (inactive) | > 54.5 µM (inactive) | 24.8 µM (inactive) | 48.1 µM (inactive) | 17.1 µM (inactive) |
| CCOC(=O)C(SCCO)C(C(=O)OCC)n1ccc(=O)[nH]c1=O (stereo not given) | 37 µM (inactive) | 5.55 µM (inactive) | > 35.6 µM (inactive) | 13.8 µM (inactive) | 23.1 µM (inactive) | 25.1 µM (inactive) | > 100 µM (inactive) | > 100 µM (inactive) | 22.1 µM (inactive) | 22.1 µM (inactive) | 23.3 µM (inactive) | > 100 µM (inactive) | 3.77 µM (inactive) | 3.01 µM (inactive) | 17.6 µM (inactive) | 12.9 µM (inactive) | 31.9 µM (inactive) | 75 µM (inactive) | 27.6 µM (inactive) | > 60.7 µM (inactive) |
| C=C(Cl)C(Br)(CCl)CCC(Br)C(C)(C)Cl (stereo not given) | 6.87 µM (inactive) | 2.44 µM (inactive) | 5.32 µM (inactive) | 9.75 µM (inactive) | 3.38 µM (inactive) | 3.38 µM (inactive) | 14 µM (inactive) | 3.48 µM (inactive) | 7.21 µM (inactive) | 2.84 µM (inactive) | 6.17 µM (inactive) | 17.7 µM (inactive) | 3.42 µM (inactive) | 1.6 µM (inactive) | 4.53 µM (inactive) | 1.71 µM (inactive) | 5.82 µM (inactive) | 17.7 µM (inactive) | 7.24 µM (inactive) | 2.76 µM (inactive) |
| CC1OC(n2cc(F)c(=O)[nH]c2=O)CCC1O (stereo not given) | > 96.2 µM (inactive) | > 100 µM (inactive) | > 100 µM (inactive) | > 100 µM (inactive) | 30.1 µM (inactive) | > 85.3 µM (inactive) | > 100 µM (inactive) | > 100 µM (inactive) | > 100 µM (inactive) | > 100 µM (inactive) | > 100 µM (inactive) | 67.5 µM (inactive) | > 95.1 µM (inactive) | > 100 µM (inactive) | > 87.1 µM (inactive) | > 100 µM (inactive) | > 100 µM (inactive) | > 66.5 µM (inactive) | > 100 µM (inactive) | > 87.1 µM (inactive) |
| C=C(C)COc1ccc2c(c1)CCC1C2CCC2(C)C(=O)/C(=N/O)CC12 (stereo not given) | 2.19 µM (inactive) | 2.73 µM (inactive) | 9.31 µM (inactive) | 2.3 µM (inactive) | 2.9 µM (inactive) | 6.92 µM (inactive) | 8.55 µM (inactive) | 11.8 µM (inactive) | 3.93 µM (inactive) | 3.13 µM (inactive) | 3.43 µM (inactive) | 9.62 µM (inactive) | 3.58 µM (inactive) | 1.76 µM (inactive) | 3.21 µM (inactive) | 1.99 µM (inactive) | 1.61 µM (inactive) | 11.1 µM (inactive) | 4.09 µM (inactive) | 5.43 µM (inactive) |

— ChEMBL document CHEMBL1201862, “PubChem BioAssay data set” (2004)
